Data set [1] has as its system Salmonella typhimurium TA98 strain, TA100 strain. The data set is classed as cell-based. The note with it: Salmonella typhimurium TA98, TA100, non-metabolism and metabolism activating condition. How it is done: The mutagenicity of the compound of the present invention was assayed.
20 μL of freezing-stored rat typhoid bacillus (Salmonella typhimurium TA98 strain, TA100 strain) was inoculated on 10 mL of a liquid nutrient medium (2.5% Oxoid nutrient broth No. 2), and this was cultured before shaking at 37° C. for 10 hours. 9 mL of a bacterial solution of the TA98 strain was centrifuged (2000×g, 10 minutes) to remove a culturing solution. The bacteria was suspended in F buffer (K2HPO4: 3.5 g/L, KH2PO4: 1 g/L, (NH4)2SO4: 1 g/L, trisodium citrate dehydrate: 0.25 g/L, MgSO4.7H2O: 0.1 g/L), and the suspension was added to 110 mL of an Exposure medium (Micro F buffer containing Biotin: 8 μg/mL, histidine: 0.2 μg/mL, glucose: 8 mg/mL). The TA100 strain was added to 120 mL of the Exposure medium per 3.16 mL of the bacterial solution to prepare a test bacterial solution. […] of a test substance DMSO solution (several stage dilution from maximum dose 50 mg/mL at 2- to 3-fold ratio), DMSO as a negative control, 50 μg/mL of 4-nitroquinoline-1-oxide DMSO solution for the TA98 strain, 0.25 μg/mL of 2-(2-furyl)-3-(5-nitro-2-furyl)acrylamide DMSO solution for the TA100 strain each under the non-metabolism activating condition, 40 μg/mL of 2-aminoanthracene DMSO solution for the TA98 strain, 20 μg/mL of 2-aminoanthracene DMSO solution for the TA100 strain each under the metabolism activating condition all as a positive control, and 588 μL of the test bacterial solution (a mixed solution of 498 μL of the test bacterial solution and 90 μL of S9 mix under the metabolism activating condition) were mixed, and this was shaking-cultured at 37° C. for 90 minutes. […] Since a well containing a bacterium which has obtained the proliferation ability by mutation of an amino acid (histidine) synthesizing enzyme gene turns from purple to yellow due to a pH change, the bacterium proliferation well which has turned to yellow in 48 wells per dose is counted, and was assessed by comparing with a negative control group. […]

A further data set has as its system HIV (HTLV-III B strain). Briefly: HIV replication inhibition assay (MTT, MT-4 cells). The note with it: Human immunodeficiency virus 1, MT4, 96 h, four days culture, concentration at which cell cytotoxicity by virus is inhibited 50%. The data set is classed as cell-based. The procedure: HIV (HTLV-III B strain) persistent infected human T cell strain Molt-4 clone 8 was cultured in 10% Fetal Bovine Serum-containing RPMI-1640 medium and the supernatant was filtrated, then the virus titer was measured and the solution was stored at −80° C. Each anti-human immunodeficiency virus active substance was diluted with the above cultured medium to the designated concentration, which was dispensed into 96 well micro plate by 50 μL. Next, a MT-4 cell suspended liquid was dispensed by 100 μL (2.5×10^4 cells), then the above HIV-containing supernatant diluted with the above cultured medium was added thereto by 50 μL (60 pfu (plaque forming unit)).
The obtained mixture was cultured at 37° C. in CO2 incubator for four days, then 3-(4,5-dimehylthiazole-2-yl)-2,5-diphenyltetrazolynium bromide (MTT) 5 mg/mL in PBS was added to each well by 30 μL, followed by 1 hr-cultivation. In this step, as formazan was precipitated by reduction of MTT in living cells, the cell supernatant was removed from all well by 150 μL, then a 150 μL of solution (10% Triton X-100 and […]) was added thereto, followed by shaking with a plate mixer, to elute formazan. The formazan was measured with a microreader at OD: 560 nm and 690 nm (wavelength) and the result was compared with the reference. EC50 means the compound concentration at which cell cytotoxicity by virus is inhibited 50%.

Usually EC50 stands for the midpoint of the concentration-response curve. Higher therefore signals lower potency in that assay. With `CCNC(=O)Nc1c(C)c(C(OC(C)(C)C)C(=O)O)c(-c2ccc(C)c(C)c2)c(C)c1-c1ccc(C)c(C)c1` (stereo not shown) [Compound I-11], the mutagenicity entry in data set [1] is “negative”. Moreover, in the data set with HIV (HTLV-III B strain), the concentration giving a half-maximal response (EC50) came out at 21 nM.
Regarding `Cc1ccc(-c2c(C)c(-c3ccc(C)c(C)c3)c(C(OC(C)(C)C)C(=O)O)c(C)c2NS(C)(=O)=O)cc1C` (stereo not shown) [Compound I-12], the mutagenicity result in data set [1] is listed as “negative”. The compound also returned a concentration for a half-maximal effect (EC50) in the data set on HIV (HTLV-III B strain) of 6.4 nM.

Values taken from US9199959B2, “HIV replication inhibitor” (Shionogi & Co., Ltd., priority 2011, dated 2015).
